In patent publication US10919885B2, “Compounds and uses thereof” (Yumanity Therapeutics, Inc., priority 2018, dated 2021):
Structures can show the parent of a compound that is named as a salt.

Legend:
[1] = target: human SCD1 (Homo sapiens (Human), UniProt O00767); experiment: Yeast growth assay, strain expressing human SCD1 as the sole desaturase (reduced growth as surrogate for SCD inhibition); format: cell-based; conditions: yeast with OLE1 deleted expressing human SCD1 from a plasmid; growth read as OD600 after 40 h at 30° C.; top drug concentration 33.3 μM
Sequence of human SCD1 (O00767 whole entry): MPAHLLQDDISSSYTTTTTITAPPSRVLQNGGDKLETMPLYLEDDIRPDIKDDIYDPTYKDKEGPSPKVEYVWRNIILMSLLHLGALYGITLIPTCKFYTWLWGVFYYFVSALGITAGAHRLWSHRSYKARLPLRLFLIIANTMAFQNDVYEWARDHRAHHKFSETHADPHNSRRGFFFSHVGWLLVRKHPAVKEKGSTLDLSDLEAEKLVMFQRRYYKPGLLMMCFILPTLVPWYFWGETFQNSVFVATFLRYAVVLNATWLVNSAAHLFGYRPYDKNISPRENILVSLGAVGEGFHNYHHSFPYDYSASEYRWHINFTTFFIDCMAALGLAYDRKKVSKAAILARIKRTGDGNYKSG
Procedure, shortened: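 Human SCD1 or SCD5 expressed from a plasmid in OLE1-deleted yeast as the sole desaturase. Cells washed free of Tween and fatty acids, grown with compound in SD-Ura glucose medium 40 h at 30 °C; growth measured as OD600, reduced growth taken as SCD inhibition.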

[2] = target: human SCD5 (Homo sapiens (Human), UniProt Q86SK9); experiment: Yeast growth assay, strain expressing human SCD5 as the sole desaturase (reduced growth as surrogate for SCD inhibition); format: cell-based; conditions: yeast with OLE1 deleted expressing human SCD5 from a plasmid; growth read as OD600 after 40 h at 30° C.; top drug concentration 33.3 μM
Sequence of human SCD5 (Q86SK9 whole entry): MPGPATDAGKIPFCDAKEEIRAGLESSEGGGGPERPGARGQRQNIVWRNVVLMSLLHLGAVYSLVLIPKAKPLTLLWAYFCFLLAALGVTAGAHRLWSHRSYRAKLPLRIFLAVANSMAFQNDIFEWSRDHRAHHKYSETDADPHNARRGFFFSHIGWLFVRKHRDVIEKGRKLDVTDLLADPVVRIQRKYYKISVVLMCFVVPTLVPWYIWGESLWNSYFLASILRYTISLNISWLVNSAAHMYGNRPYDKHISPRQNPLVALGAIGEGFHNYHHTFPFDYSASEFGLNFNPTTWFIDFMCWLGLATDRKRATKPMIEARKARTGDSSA
Description: Strains expressing SCD1 or SCD5 as the sole desaturase, the human SCD1 and SCD5 genes were used to evaluate inhibition of SCD1/SCD5 using reduced growth as a surrogate for SCD inhibition. These yeast strains express human SCD1 or SCD5 from a plasmid harbored in a strain in which the yeast OLE1 gene is deleted.
All compound profiling experiments were performed using the same basic protocol. Yeast were cultured using standard techniques in complete synthetic media lacking uracil and containing yeast nitrogen base supplemented with 2% (w/v) glucose (SD-Ura) Starter cultures were inoculated in 3 mL SD-Ura media containing 0.01% tween and 0.2 mM palmitoleic and oleic acid. Cultures were incubated overnight in a 30° C. shaker incubator (225 rpm). Saturated morning cultures were centrifuged, washed in SD-Ura media lacking TWEEN-20 and fatty acids, and then diluted 1:20 in fresh SD-Ura media also lacking TWEEN-20 and fatty acids.
Compound administration was performed in two separate steps. First, 15 μL of SD-Ura was dispensed into clear 384-well assay plates using a MULTIDROP™ Combi reagent dispenser. […] The cultures described above were centrifuged and washed with media lacking TWEEN-20 or oleic and palmitoleic acids.
After yeast delivery, assay plates were incubated under humidified conditions at 30° C. for 40 h. Yeast growth was monitored by reading the OD600 of each well using a microplate reader (Perkin Elmer EnVision™).

Structure (SMILES) | IC50 [1] [µM] | IC50 [2] [µM]
O=C(c1cc(-c2ccccc2)on1)N1CCC(O)(c2ccccc2)CC1 [Compound 296] | > 45 | > 45
CC(C)(C)OC(=O)n1cc(NC(=O)c2cc(-c3ccccc3)on2)cn1 [Compound 35] | 3.24 | > 45
O=C(c1noc2c1CCCC2)N1CC(Cc2ccccc2)C1 [Compound 253, 3-(3-benzylazetidine-1-carbonyl)-4,5,6,7-tetrahydro-1,2-benzoxazole] | > 45 | 13
O=C(c1cc(-c2ccccc2)on1)N1CCN(c2cc(F)ccc2Cl)CC1 [Compound 297, (4-(2-chloro-5-fluorophenyl)piperazin-1-yl)(5-phenylisoxazol-3-yl)methanone] | 19 | 5.58
O=C(c1cc(-c2ccc3c(c2)OCO3)on1)N1CCN(c2cc(F)ccc2Cl)CC1 [Compound 299, [5-(1,3-benzodioxol-5-yl)isoxazol-3-yl]-[4-(2-chloro-5-fluoro-phenyl)piperazin-1-yl]methanone] | > 45 | 8.68
CSCC(c1ccccc1)n1cc(NC(=O)c2cc(-c3ccccc3)on2)cn1 (stereo not drawn) [Compound 73] | > 45 | > 45
Cc1nn(Cc2ccccc2)cc1NC(=O)c1cc(-c2ccccc2)on1 [Compound 66] | 1.83 | > 45
O=C(Nc1cnn(Cc2cccnc2C(F)(F)F)c1)c1cc(-c2ccccc2F)on1 [Compound 177] | > 45 | > 45
Cc1nnc(-c2cc(C(=O)Nc3cnn(Cc4cccc(F)c4)c3)no2)s1 [Compound 175] | > 45 | > 45
O=C(Nc1cnn(Cc2cccc(F)c2)c1)c1cc(-c2ncccn2)on1 [Compound 46] | 22.6 | > 45
O=C(Nc1cnn(CCc2ccccc2)c1)c1cc(-c2ccco2)on1 [Compound 24] | > 45 | > 45
N#Cc1ccc(F)cc1Cn1cc(NC(=O)c2cc(-c3ccccc3)on2)cn1 [Compound 88] | > 45 | > 45
Cc1nnc(-c2cc(C(=O)Nc3cnn(Cc4ccccc4)c3)no2)o1 [Compound 165] | > 45 | > 45
O=C(c1cc(-c2ccncc2)on1)N1CC(c2ccccc2)C1 [Compound 229, (3-phenylazetidin-1-yl)(5-(pyridin-4-yl)isoxazol-3-yl)methanone, trifluoroacetic acid] | 0.66 | 7.17
O=C(Nc1ccnc(Oc2ccccc2)c1)c1cc(-c2ccccc2)on1 [Compound 312] | > 45 | > 45
CC(c1ccccc1)n1cc(NC(=O)c2cc(-c3ccccc3)on2)cn1 (stereo not drawn) [Compound 51] | > 45 | > 45
O=C(c1cc(-c2cccnc2)on1)N1CCC(c2ccccc2)CC1 [Compound 315, (4-phenylpiperidin-1-yl)(5-(pyridin-3-yl)isoxazol-3-yl)methanone, trifluoroacetic acid salt] | 3.84 | 1.06
O=C(c1cc(-c2ccc3c(c2)OCO3)on1)N1COCC1c1ccccc1 (stereo not drawn) [Compound 406] | > 45 | > 45
O=C(Nc1cnn(Cc2cccc(F)c2)c1)c1cc(-c2cccnc2)on1 [Compound 55] | 0.59 | > 45
Cn1nccc1C1CCCN1C(=O)c1cc(-c2ccc3c(c2)OCO3)on1 (stereo not drawn) [Compound 417] | > 45 | > 45
O=C(c1cc(-c2ccc3c(c2)OCO3)on1)N1CCC(c2ccccc2)CC1 [Compound 275, [5-(1,3-benzodioxol-5-yl)isoxazol-3-yl]-(4-phenyl-1-piperidyl)methanone] | > 45 | 1.13
O=C(Nc1cnn(Cc2ncccc2C(F)(F)F)c1)c1cc(-c2ccccc2F)on1 [Compound 196] | > 45 | > 45
Cc1nn(C)c2cc(-c3cc(CN4C(=O)OCC4c4ccccc4)no3)ccc12 (stereo not drawn) [Compound 273] | > 45 | 39.2
CC1(c2ccccc2)CCN(C(=O)c2cc(-c3ccc4c(c3)OCO4)on2)CC1 [Compound 290, 1-[5-(2H-1,3-benzodioxol-5-yl)-1,2-oxazole-3-carbonyl]-4-methyl-4-phenylpiperidine] | > 45 | 2.94
O=C(c1cc(-c2ccc3c(c2)OCO3)on1)N1CCCc2ccccc21 [Compound 261] | > 45 | > 45
O=C(c1cc(-c2ccccc2)on1)N1CC(Nc2ccccc2)C1 [Compound 214] | > 45 | > 45
COc1ccc(C2CCCN2C(=O)c2cc(-c3ccc(OC)c(OC)c3)on2)cc1 (stereo not drawn) [Compound 374] | 32.2 | > 45

Structure (SMILES) | IC50 [1] [µM] | IC50 [2] [µM]
O=C(Nc1cnn(Cc2ccc(F)c(F)c2)c1)c1cc(-c2ccccn2)on1 [Compound 61] | 25.5 | > 45
O=C(c1cc(-c2ccncc2)on1)N1CCC(c2ccccc2)CC1 [Compound 313, (4-phenylpiperidin-1-yl)(5-(pyridin-4-yl)isoxazol-3-yl)methanone, trifluoroacetic acid] | 0.41 | 1.54
O=C(c1cc(-c2ccccc2)on1)N1CC2(CNC2)C1 [Compound 345] | > 45 | > 45
O=C(c1cc(-c2ccc3c(c2)OCO3)on1)N1CCCC1c1ccccc1C(F)F (stereo not drawn) [Compound 331] | > 45 | 6.18
O=C(c1cc(CC2CC2)on1)N1CCCC1c1ccccc1 (stereo not drawn) [Compound 384] | 30 | > 45
O=C(c1cc(-c2ccc3c(c2)OCO3)on1)N1CCN(c2ccc(F)cc2)CC1 [Compound 279] | > 45 | > 45
CC(C)c1cc(C(=O)Nc2cnn(CC34CCC(CC3)CC4)c2)no1 [Compound 167] | > 45 | > 45
O=C(Nc1cnn(Cc2cccc(F)c2)c1)c1cc(-c2cnccn2)on1 [Compound 45] | 23.1 | > 45
COc1ccc(Cn2cc(NC(=O)c3cc(-c4ccccc4)on3)cn2)cc1 [Compound 109] | > 45 | > 45
O=C(c1cc(-c2ccc3c(c2)OCO3)on1)N1CCC1c1cccc(F)c1 (stereo not drawn) [Compound 220, [5-(1,3-benzodioxol-5-yl)isoxazol-3-yl]-[2-(3-fluorophenyl)azetidin-1-yl]methanone] | > 45 | 2.92
O=C(Nc1cnn(Cc2ccc(Cl)cc2)c1)c1cc(-c2ccco2)on1 [Compound 15] | > 45 | > 45
Cc1nn(C)c2cc(-c3cc(C(=O)N4CCCC4c4ccnnc4)no3)ccc12 (stereo not drawn) [Compound 458] | > 45 | > 45
O=C(c1cc(-c2ccc3c(c2)OCO3)on1)N1CC(Nc2ccccc2)C1 [Compound 221] | > 45 | > 45
O=C(c1cc(-c2ccc3c(c2)OCO3)on1)N1CCC1c1ccccc1Cl (stereo not drawn) [Compound 219] | > 45 | > 45
O=C(Nc1cnn(Cc2ccc(C(F)(F)F)cc2)c1)c1cc(-c2ccco2)on1 [Compound 16] | > 45 | > 45
O=C(c1cc(-c2ccc3c(c2)OCO3)on1)N1CCN(c2cccc(F)c2)CC1 [Compound 282] | > 45 | > 45
O=C(Nc1cnn(Cc2cccc(F)c2)c1)c1cc(-c2ccccn2)on1 [Compound 54] | 2.04 | > 45
NC(=O)c1cc(C(=O)Nc2cnn(Cc3ccccc3)c2)no1 [Compound 48] | > 45 | > 45
N#Cc1ccccc1-c1cc(C(=O)N2CCC(c3ccccc3)CC2)no1 [Compound 326, 2-(3-(4-phenylpiperidine-1-carbonyl)isoxazol-5-yl)benzonitrile] | > 45 | 5.7
O=C(c1cc(-c2ccc3c(c2)OCO3)on1)N1C[C@@H](O)C[C@H]1c1ccccc1 [Compound 421] | > 45 | > 45
CSCCC(c1ccccc1)n1cc(NC(=O)c2cc(-c3ccccc3)on2)cn1 (stereo not drawn) [Compound 70] | > 45 | > 45
O=C(c1cc(-c2ccc3c(c2)OCO3)on1)N1CCCC1c1cccnc1 (stereo not drawn) [Compound 362] | > 45 | > 45
COc1cc(F)ccc1C1CCCN1C(=O)c1cc(-c2ccc3c(c2)OCO3)on1 (stereo not drawn) [Compound 430] | > 45 | 30
Cn1cccc(-c2cc(C(=O)Nc3cnn(Cc4cccc(F)c4)c3)no2)c1=O [Compound 89] | 12 | > 45
O=C(Nc1cnn(Cc2ccccc2Cl)c1)c1cc(-c2cccc3cn(C4COC4)nc23)on1 [Compound 92] | > 45 | > 45
CN(Cc1cccc(F)c1)C(=O)c1cc(-c2ccccc2)on1 [Compound 9] | > 45 | 15.7
O=C(Nc1cnn(Cc2ccccc2)c1)c1cc(-c2ccccc2)no1 [Compound 123] | > 45 | > 45
